The test deals with T1, Bcl-2 protein (Recombinant Human Bcl-2 Protein) (Homo sapiens, UniProt P10415).
T1 construct: purchased Novus NBP2-34889
In words: Binding evaluation of mixture library compounds to Bcl-2 using AS-MS (affinity selection mass spectrometry). The conditions noted are these: for ASMS ratio (%) n = 1 / ASMS ratio (%) n = 2: ASMS Ratio(%)=(A−C)/B×100; for ASMS ratio (%) n = 1: replicate n = 1; for ASMS ratio (%) n = 2: replicate n = 2. Summed up: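 Readout is ASMS Ratio (%), (A−C)/B×100, from reversed-phase LC/MS of SEC-passed extracts, with protein-free unfiltered standard (B) and protein-free SEC blank (C). Recombinant human Bcl-2 at 20 μM final met ~1200 pooled compounds at […] each for 1 h, 23° C., dark, in Tris-HCl pH 7.4 buffer.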

[1] abbreviates: AS-MS, mixture of 1200 compounds, Bcl-2.
Where [2] appears, read: AS-MS on the mixture of 1200 library compounds.

T1 sequence (P10415 whole entry): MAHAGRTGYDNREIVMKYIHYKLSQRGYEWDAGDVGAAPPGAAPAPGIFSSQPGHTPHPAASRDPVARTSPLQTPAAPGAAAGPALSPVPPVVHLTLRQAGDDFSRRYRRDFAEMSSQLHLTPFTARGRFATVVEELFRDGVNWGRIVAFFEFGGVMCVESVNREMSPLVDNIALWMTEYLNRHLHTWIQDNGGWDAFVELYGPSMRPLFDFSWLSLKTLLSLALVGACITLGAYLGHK

Consider `CCOc1cccc(-c2cc(C(=O)N3CCN(c4ccc(C(=O)NCC56CC7CC(CC(C7)C5)C6)nn4)CC3)cc(C(C)(C)C)c2)c1` [B1A015-01, N-(1-Adamantylmethyl)-6-[4-[3-tert-butyl-5-(3-ethoxyphenyl)benzoyl]piperazin-1-yl]pyridazine-3-carboxamide], for which, under setting [1], the “ASMS ratio (%) n = 1” value is listed as −0.9% and the “ASMS ratio (%) n = 2” value is recorded as −20.6%.
On to `CCOc1cccc(-c2ccc(C(=O)N3CCN(c4ccc(C(=O)NS(=O)(=O)CCC(F)(F)F)nn4)CC3)c3ccccc23)c1` [B2N013-01, 6-[4-[4-(3-Ethoxyphenyl)naphthalene-1-carbonyl]piperazin-1-yl]-N-(3,3,3-trifluoropropylsulfonyl)pyridazine-3-carboxamide], for which the “ASMS ratio (%)” value by setting is: (n = 1) 0.0%; (n = 2) 0.0%.
As for `CCOc1cccc(-c2ccc(CN3CCN(c4ccc(C(=O)NS(=O)(=O)CCC(F)(F)F)cc4)CC3)cc2F)c1` [B2N051-01, 4-[4-[[4-(3-Ethoxyphenyl)-3-fluorophenyl]methyl]piperazin-1-yl]-N-(3,3,3-trifluoropropylsulfonyl)benzamide], the “ASMS ratio (%)” value (n = 1) amounted to 0.0% and the “ASMS ratio (%)” value (n = 2) is recorded as 0.0%.
`CCOc1cccc(-c2ccccc2CCC(=O)N2CCN(c3ccc(C(=O)NS(=O)(=O)CC45CC6CC(CC(C6)C4)C5)nn3)CC2)c1` [B2A011-01, N-(1-Adamantylmethylsulfonyl)-6-[4-[3-[2-(3-ethoxyphenyl)phenyl]propanoyl]piperazin-1-yl]pyridazine-3-carboxamide]: for the setting “AS-MS, mixture library, Bcl-2”, the “ASMS ratio (%) n = 1” value came to 9.0% and the “ASMS ratio (%) n = 2” value came out at 0.3%.
With `CCOc1cncc(-c2cc(C(=O)N3CCN(c4ccc(C(=O)N(CC)CC)cc4)CC3)cc(C(F)(F)F)c2)c1` [B4J040-01, 4-[4-[3-(5-Ethoxypyridin-3-yl)-5-(trifluoromethyl)benzoyl]piperazin-1-yl]-N,N-diethylbenzamide], under setting [2], the “ASMS ratio (%) n = 1” value is −0.5% and the “ASMS ratio (%) n = 2” value was −1.2%.
Regarding `CCOc1cncc(-c2csc(C(=O)N3CCN(c4ccc(C(=O)NCC(F)(F)F)cc4)CC3)c2)c1` [B1K024-01, 4-[4-[4-(5-Ethoxypyridin-3-yl)thiophene-2-carbonyl]piperazin-1-yl]-N-(2,2,2-trifluoroethyl)benzamide], under setting [1], the “ASMS ratio (%) n = 1” value amounted to 0.0% and the “ASMS ratio (%) n = 2” value came out at 0.0%.
For `CCOc1cccc(-c2cc(CN3CCN(c4ccc(C(=O)NCC(F)(F)F)nn4)CC3)cc(OC(C)C)c2)c1` [B1K083-01], under setting [1], the “ASMS ratio (%) n = 1” value is given as 0.0% and the “ASMS ratio (%) n = 2” value worked out at 0.0%.
Take `CCOc1cccc(-c2cc(OC)c(CN3CCN(c4ccc(C(=O)NCC56CC7CC(CC(C7)C5)C6)nn4)CC3)c(OC)c2)c1` [B1A085-01, N-(1-Adamantylmethyl)-6-[4-[[4-(3-ethoxyphenyl)-2,6-dimethoxyphenyl]methyl]piperazin-1-yl]pyridazine-3-carboxamide]: under setting [1], the “ASMS ratio (%) n = 1” value is 10.6% and the “ASMS ratio (%) n = 2” value came out at 10.8%.
On the same counts, the results for “6-[4-[[4-(3-Ethoxyphenyl)-2-ethylphenyl]methyl]piperazin-1-yl]-N-propylpyridazine-3-carboxamide [B1M070-01]” are 0.0% and 0.0%.
For `CCOc1cccc(-c2cc(CN3CCN(c4ccc(C(=O)NS(C)(=O)=O)cc4)CC3)cc(C(F)(F)F)c2)c1` [B2I061-01, 4-[4-[[3-(3-Ethoxyphenyl)-5-(trifluoromethyl)phenyl]methyl]piperazin-1-yl]-N-methylsulfonylbenzamide], the “ASMS ratio (%)” value by setting is: (n = 1) −0.8%; (n = 2) 0.5%.
Turning to `CCOc1cncc(C#Cc2ccccc2CN2CCN(c3ccc(C(=O)N(C)CC45CC6CC(CC(C6)C4)C5)cc3)CC2)c1` [B3A070-01, N-(1-Adamantylmethyl)-4-[4-[[2-[2-(5-ethoxypyridin-3-yl)ethynyl]phenyl]methyl]piperazin-1-yl]-N-methylbenzamide], under setting [2], the “ASMS ratio (%) n = 1” value is 7.7% and the “ASMS ratio (%) n = 2” value is −8.1%.
Turning to `CCOc1cccc(-c2ccc(C(C)N3CCN(c4ccc(C(=O)NS(=O)(=O)CCC(F)(F)F)cc4)CC3)cc2)c1` (stereo not shown) [B2N097-01, 4-[4-[1-[4-(3-Ethoxyphenyl)phenyl]ethyl]piperazin-1-yl]-N-(3,3,3-trifluoropropylsulfonyl)benzamide], the “ASMS ratio (%)” value is, setting by setting: (n = 1) 0.0%; (n = 2) 0.0%.
For the compound `CCOc1cccc(-c2ccc(C(=O)N3CCN(c4ccc(C(=O)NS(C)(=O)=O)nn4)CC3)c3ccccc23)c1` [B2I013-01, 6-[4-[4-(3-Ethoxyphenyl)naphthalene-1-carbonyl]piperazin-1-yl]-N-methylsulfonylpyridazine-3-carboxamide], for the setting “AS-MS, mixture library, Bcl-2”, the “ASMS ratio (%) n = 1” value is listed as 0.0% and the “ASMS ratio (%) n = 2” value was determined as 0.0%.
Turning to `CCOc1cncc(-c2ccc(CN3CCN(c4ccc(C(=O)NS(=O)(=O)CC56CC7CC(CC(C7)C5)C6)nn4)CC3)cc2C)c1` [B2A074-01, N-(1-Adamantylmethylsulfonyl)-6-[4-[[4-(5-ethoxypyridin-3-yl)-3-methylphenyl]methyl]piperazin-1-yl]pyridazine-3-carboxamide], under “AS-MS, mixture library, Bcl-2”, the “ASMS ratio (%) n = 1” value is on record as 9.2% and the “ASMS ratio (%) n = 2” value is 1.9%.
On to `CCOc1cncc(-c2cc(OC)c(CN3CCN(c4ccc(C(=O)N(C)CC56CC7CC(CC(C7)C5)C6)cc4)CC3)c(OC)c2)c1` [B3A060-01, N-(1-Adamantylmethyl)-4-[4-[[4-(5-ethoxypyridin-3-yl)-2,6-dimethoxyphenyl]methyl]piperazin-1-yl]-N-methylbenzamide], for which, under setting [2], the “ASMS ratio (%) n = 1” value was 0.9% and the “ASMS ratio (%) n = 2” value was determined as 0.0%.
In the case of `CCOc1cccc(-c2ccc(CN3CCN(c4ccc(C(=O)NS(=O)(=O)c5ccc(NCCSc6ccccc6)c([N+](=O)[O-])c5)nn4)CC3)c(OC)c2)c1` [B2Q079-01, 6-[4-[[4-(3-Ethoxyphenyl)-2-methoxyphenyl]methyl]piperazin-1-yl]-N-[3-nitro-4-(2-phenylsulfanylethylamino)phenyl]sulfonylpyridazine-3-carboxamide], for the setting “AS-MS, mixture library, Bcl-2”, the “ASMS ratio (%) n = 1” value was found to be 17.6% and the “ASMS ratio (%) n = 2” value amounted to 0.0%.
As to `CCOc1cccc(-c2ccc(CN3CCN(c4ccc(C(=O)NCC(F)(F)F)cc4)CC3)c(CC)c2)c1` [B1K049-01, 4-[4-[[4-(3-Ethoxyphenyl)-2-ethylphenyl]methyl]piperazin-1-yl]-N-(2,2,2-trifluoroethyl)benzamide], under setting [1], the “ASMS ratio (%) n = 1” value is given as −3.3% and the “ASMS ratio (%) n = 2” value stood at 1.5%.
For `CCOc1cccc(-c2ccc(CN3CCN(c4ccc(C(=O)NS(=O)(=O)c5ccc(NCCSc6ccccc6)c(C(F)(F)F)c5)cc4)CC3)c(OC)c2)c1` [B2R053-01, 4-[4-[[4-(3-Ethoxyphenyl)-2-methoxyphenyl]methyl]piperazin-1-yl]-N-[4-(2-phenylsulfanylethylamino)-3-(trifluoromethyl)phenyl]sulfonylbenzamide], the “ASMS ratio (%)” value reads like this: (n = 1) −15.0%; (n = 2) 0.0%.
On to `CCOc1cncc(-c2cc(CN3CCN(c4ccc(C(=O)NS(=O)(=O)c5ccc(NCCSc6ccccc6)c([N+](=O)[O-])c5)cc4)CC3)cc(C(F)(F)F)c2)c1` [B2Q062-01, 4-[4-[[3-(5-Ethoxypyridin-3-yl)-5-(trifluoromethyl)phenyl]methyl]piperazin-1-yl]-N-[3-nitro-4-(2-phenylsulfanylethylamino)phenyl]sulfonylbenzamide], for which, for the setting “AS-MS, mixture library, Bcl-2”, the “ASMS ratio (%) n = 1” value is reported as 9.4% and the “ASMS ratio (%) n = 2” value is on record as −3.3%.
Turning to `CCOc1cccc(-c2csc(CN3CCN(c4ccc(C(=O)N(C)CC56CC7CC(CC(C7)C5)C6)nn4)CC3)c2)c1` [B3A093-01, N-(1-Adamantylmethyl)-6-[4-[[4-(3-ethoxyphenyl)thiophen-2-yl]methyl]piperazin-1-yl]-N-methylpyridazine-3-carboxamide], under setting [2], the “ASMS ratio (%) n = 1” value is recorded as −3.8% and the “ASMS ratio (%) n = 2” value came out at 0.0%.
Consider `CCOc1cncc(-c2cnn(-c3cc(C(=O)N4CCN(c5ccc(C(=O)NS(=O)(=O)CC67CC8CC(CC(C8)C6)C7)cc5)CC4)cc(C(F)(F)F)c3)c2)c1` [B2A044-01, N-(1-Adamantylmethylsulfonyl)-4-[4-[3-[4-(5-ethoxypyridin-3-yl)pyrazol-1-yl]-5-(trifluoromethyl)benzoyl]piperazin-1-yl]benzamide], for which, for the setting “AS-MS, mixture library, Bcl-2”, the “ASMS ratio (%) n = 1” value worked out at 0.7% and the “ASMS ratio (%) n = 2” value is −0.2%.
Taken in the same sequence, the figures for `CCOc1cncc(-c2ccc(C(=O)N3CCN(c4ccc(C(=O)NS(=O)(=O)c5ccc(NCCSc6ccccc6)c([N+](=O)[O-])c5)nn4)CC3)c3ccccc23)c1` [B2Q014-01, 6-[4-[4-(5-Ethoxypyridin-3-yl)naphthalene-1-carbonyl]piperazin-1-yl]-N-[3-nitro-4-(2-phenylsulfanylethylamino)phenyl]sulfonylpyridazine-3-carboxamide] were 9.3% and 14.5%.
On to `CCOc1cccc(-c2cc(OC)c(CN3CCN(c4ccc(C(=O)Nc5ccc(OC)cc5)nn4)CC3)c(OC)c2)c1` [B1O085-01, 6-[4-[[4-(3-Ethoxyphenyl)-2,6-dimethoxyphenyl]methyl]piperazin-1-yl]-N-(4-methoxyphenyl)pyridazine-3-carboxamide], for which, under setting [2], the “ASMS ratio (%) n = 1” value is −1.1% and the “ASMS ratio (%) n = 2” value is given as −3.1%.

(Values after patent publication US20240132431A1, “METHOD FOR ALKYLATING ACIDIC FUNCTIONAL GROUP” (Chugai Seiyaku Kabushiki Kaisha, priority 2021, published 2024).)
